Measured values from patent US20230338463A1, “ICD PEPTIDE AND USE THEREOF FOR HAVING CYTOTOXIC ACTIVITY ON CANCER CELLS” (NATIONAL TSING HUA UNIVERSITY, priority 2022, published 2023).
Non-standard residues stand in square brackets, D forms with d. Residues, ends and D or L forms follow the SMILES beside them. 2Nal = N[C@@H](Cc1ccc2ccccc2c1)C(=O)O

Tests used:
[1] = tested on: MN-11 cells (fibrosarcoma); assay: MN-11 fibrosarcoma tumor regression, intratumoral injection; format: in vivo
Description: Female C57BL/6 wild-type mice (4–5 weeks old) were obtained from the BioLASCO Taiwan Co., Ltd (Taiwan). All mice were housed in a specific pathogen-free and controlled environment. During the experiments, female mice, weighing 18–24 g each, were kept in groups of 4 to 6 animals per cage under climate-controlled conditions, with 12 h light/dark cycles and an ambient temperature. The mice were housed in an enriched individually ventilated cage system with free access to standard rodent chow and water ad libitum. The animals were anesthetized during the experimental procedures with 2.5% isoflurane gas. The animals were monitored daily and large-tumor-bearing mice were euthanized with isoflurane. All the procedures were conducted according to the regulations of Laboratory Animal Care and Use Committee or Group Setup and Management and the law of Animal Protection. All animal experiments were approved by National Tsing Hua University (approval ID: 110016), and the protocol was approved by Institutional Animal Care and Use Committee.
Pre-cultured MN-11 cells were harvested in a DMEM medium and inoculated total of 5×10^5 cells (mixed equal volume of matrigel) into the right flank of the abdomen in C57BL/6 mice with subcutaneous injection (6 mice/group). Palpable tumors (50-75 mm^3) were intratumorally injected (i.t.) with Nal-P-113 (1 mg/50 µl saline per mouse) for 3 consecutive days. Negative control (tumor only) mice received saline only (sterile H2O with 0.9% NaCl). Tumor size was measured every 2 days using a caliper, and the volume of tumors was calculated using the following formula: Tumor size (mm^3) = 0.5× (width^2×length). Animals were terminated when the tumor exceeded 2000 mm^3. The survival rates of tumor-bearing mice were observed and recorded continuously until all animals were dead. Additionally, the following were implemented as humane endpoints: signs of unacceptable pain, infection, severe ulceration, or surgical complications.
To investigate the therapeutic potential of Nal-P-113 in vivo, MN-11 cells were subcutaneously implanted into C57BL/6 mice. After eight days post-implantation, tumor volumes reached 50-75 mm^3. Then all animals were injected intratumorally (i.t.) with 50 µl of PBS (Negative control; n=5) or […] Nal-P-113 (n=11). […] At the end of the experiments (35 days), 10 out of 11 animals were survived in the treatment group. […] Nal-P-113 treatment appeared to be nontoxic since no there were effects on the body weight and intake of the animals at the end of the experiment (FIG. 9D and FIG. 9E).

MN-11 cells = assay: Luciferin-luciferase extracellular ATP, MN-11; format: cell-based, murine; details: MN-11, 2 × IC50, peak at 0.5-hour
Description: On the other hand, MN-11 cells were seeded at the density of 25,000 cells/ well in the 96 well plate and allowed to adhere for 24 hours. Cells were treated with Nal-P-113, Bip-P-113 and Dip-P-113 at 2× IC50 for 0.5, 1, 1.5, and 2 hours. Untreated cells served as the control group. After being treated for different time points (0.5, 1, 1.5, and 2 hours), the supernatant of cells was analyzed using the ENLITEN ATP luciferase assay kit (Promega, Madison, WI, USA). The level of the extracellular ATP chemiluminescence was measured at 560 nm using the Wallac VICTOR 3 Multilabel plate reader (PerkinElmer, Shelton, CT, USA).
ATP release from MN-11 cells were measured using the luciferin-luciferase assay after peptide (2 × IC50) treatment (FIGS. 6B-6D). Nal-P-113 and Dip-P-113 reached the relative light unit (~ 11,000 RLU) peak at 0.5-hour, and Bip-P-113 reached the highest peak at 1 hour (~ 13,000 RLU).

PC 9 cells = assay: Extracellular HMGB1 Western blot, PC 9; format: cell-based, human
Description: HMGB 1 is a chromatin-binding protein and plays an important role as an indicator in the peptide induced immunogenic cell death. In one embodiment, the PC 9 cells were seeded at the density of 2 × 10^4 cells/well under the culture condition in 6-well plate as mentioned earlier in the cell viability determination and left to adhere for 48 hrs. The cells were treated with 56.22 µM of SEQ ID NO:3, 128.38 µM of SEQ ID NO:4 and 142.9 µM of SEQ ID NO: 5 peptides which is the two-fold IC50 concentration for 1 hour (FIG. 4A), 2 hour (FIG. 4B), 4 hour (FIG. 4C) under the incubation condition of humidified 5% CO2 and 37° C. The ICD peptides used were dissolved thoroughly in the serum-free medium (RPMI 1640) before treating the cells.
After the treatment of ICD peptides, the supernatant and lysate of the cells were collected separately for the further experiment. The supernatant was centrifuged at the speed of 1,500 RCF while the cell lysate was undergoing the centrifugation at 14,000 rpm for 5 minutes under the temperature of 4° C. Then, the pellet collected from the supernatant and supernatant of centrifuged cell lysate were discarded. The harvested pellet of cell lysate was washed twice using 200 µL PBS each time preliminarily the sonication of the pellet using bio-disruptor. The disrupted pellet was centrifuged again for 10 minutes under 14,000 rpm and 4° C.
The concentration of the samples was quantified using the commercially available protein quantification assay such as Bradford assay to make sure the amount of the protein was equally loaded in each of the well for SDS-PAGE gel.
The transfer process from polyacrylamide gel to PVDF membrane was performing for 75 minutes under 30 V and 400 mA as well as semi-dry condition. PBST buffer was used to wash the PVDF membrane three times after the transfer process.
The anti-HMGB1 antibody (Abcam, Cambridge, UK, ab18256) will be the primary antibody and incubated overnight at 4° C. in the dilution ratio of 1: 1000. […]

[2] = tested on: MN-11 cells (murine fibrosarcoma); format: cell-based
Source text: Medium with PBS solution was used as control group.
Besides, MTT assay was used to test the cell viability of the murine fibrosarcoma MN-11 cell line. Among the peptides, Dip-P-113 had the lowest cytotoxicity against MN-11 cells (FIG. 1F).

SMILES: CC(=O)N[C@@H](C)C(=O)N[C@@H](CCCCN)C(=O)N[C@@H](CCCNC(=N)N)C(=O)N[C@@H](Cc1ccc2ccccc2c1)C(=O)N[C@@H](Cc1ccc2ccccc2c1)C(=O)NCC(=O)N[C@@H](Cc1ccc(O)cc1)C(=O)N[C@@H](CCCCN)C(=O)N[C@@H](CCCNC(=N)N)C(=O)N[C@@H](CCCCN)C(=O)N[C@@H](Cc1ccccc1)C(=O)N[C@@H](Cc1ccc2ccccc2c1)C(N)=O [SEQ ID NO:3, Ac-AKR Nal Nal GYKRKFNal-NH2] (Ac-AKR[2Nal][2Nal]GYKRKF[2Nal]-NH2)
- toxicity (body weight and intake) ([1]; C57BL/6 mice, at the end of the experiment): nontoxic
- animals survived ([1]; end of the experiments (35 days), i.t. Nal-P-113 for 3 consecutive days, n=11): 10 out of 11
- complete regression of the tumor ([1]; treatment group n=11, i.t.): 5 animals
- tumor recurrence ([1]; treatment group n=11, i.t.): 6 animals
- ATP release, relative light unit peak (MN-11 cells): ~ 11,000 RLU
- HMGB1 in supernatant (PC 9 cells; PC 9, 2 × IC50, 1 hour): nothing is observed
- HMGB1 in supernatant (PC 9 cells; PC 9, 2 × IC50, 2 hours): can be detected
- HMGB1 in supernatant (PC 9 cells; PC 9, 2 × IC50, 4 hours): obviously be seen
- IC50 [2]: 11.1 ± 1.37 µM
